Laboratory results: EP4699608A1, “COMPOSITION FOR PREVENTING OR TREATING CANCER PAIN” (Maruishi Pharmaceutical Co., Ltd., priority 2023, dated 2024)

Key:
rats [1] = settings: at a dose lower than that required to exert an analgesic effect; cited from earlier work
mice = test: Spontaneous locomotor activity (Supermex); format: in vivo; settings: measured for 30 minutes, 1 or 3 hours after administration, compared to control group
Experimental: Five- to six-week-old male ICR-SPF mice (Japan SLC, Inc.) were divided into 5 groups of 8 mice each: a control group (with administration of distilled water (trade name: Otsuka Distilled Water) manufactured by Otsuka Pharmaceutical Factory, Inc.), two 10 mg/kg compound A administration groups, and two 30 mg/kg compound A administration groups, as shown in Table 2 below. Compound A or distilled water at a dose of 10 mL/kg was orally administered to the mice. One or three hours after the administration of compound A or distilled water, the mice were transferred to a measurement cage, and spontaneous locomotor activity was measured for 30 minutes using Supermex (registered trademark) (Muromachi Kikai Co., Ltd.).

cancer pain model rats = test: Pain threshold in cancer pain model rats (MRMT-1 bone metastasis model, Dynamic Plantar Aesthesiometer); format: in vivo; settings: for cancer pain threshold: single dose, day 11 after MRMT-1 transplantation, plantar surface of right hind paw, compared to control group (Dunnett's test, 1%); for pain threshold-time area under the curve (AUC): up to 24 hours after administration, compared to morphine 3 mg/kg subcutaneous
Experimental: Five-week-old female Crl:CD(SD) SPF rats (Charles River Japan) were injected with MRMT-1 cells (rat breast cancer cells) at 3 × 10^4 cells/20 µL/ body into the medullary cavity at the proximal end of the diaphysis of the right tibia to create a bone metastasis model (day 0). On day 10 after the transplantation of the cancer cells (day 10), the rats were divided into 4 groups of 8 rats each: a control group (with administration of distilled water (trade name: Otsuka Distilled Water) manufactured by Otsuka Pharmaceutical Factory, Inc.), a 10 mg/kg compound A administration group, a 30 mg/kg compound A administration group, and a morphine administration group, as shown in Table 1 below. On day 11 after the transplantation of the cancer cells (day 11), each drug was orally or subcutaneously administered to the rats at a dose of 2 mL/kg. The pain threshold (g) of the plantar surface of the right hind paw was measured using a Dynamic Plantar Aesthesiometer (37450, Ugo Basile) under blinded conditions 1, 3, 6, and 24 hours after the administration. The average value of the pain threshold-time area under the curve (AUC) (g·hr) for 24 hours post-administration was determined for each group.

rats [2] = test: Coordinated motor ability (rotarod); format: in vivo; settings: 10 rotations/min, cutoff 180 seconds, compared to control group
Experimental: Five- to six-week-old male SD-SPF rats (Japan SLC, Inc.) were used in this experiment. The experimental schedule included training using a rotarod (SN445, Shinano Seisakusyo) for 3 days (6 times a day), starting from 3 days before the day of administration. On the day of administration, pre-values (time to stay on the rotarod before the administration of compound A or distilled water) were measured twice, and the rats that spent 180 seconds or more on the rotarod in either of the two measurements were selected. The rats were divided into 3 groups of 6 rats each: a control group (with administration of distilled water (trade name: Otsuka Distilled Water) manufactured by Otsuka Pharmaceutical Factory, Inc.), a 10 mg/kg compound A administration group, and a 30 mg/kg compound A administration group, as shown in Table 3 below. Compound A or distilled water was orally administered to the rats at a dose of 10 mL/kg, and the time to stay on the rotarod was measured 1, 3, 6, and 24 hours after the administration under the test conditions of 10 rotations/min with a cutoff of 180 seconds.

| Compound | influences on the central nervous system (coordinated motor ability) (rats [1]) | spontaneous locomotor activity (amount of activity) (mice; 10 mg/kg oral) | spontaneous locomotor activity (amount of activity) (mice; 30 mg/kg oral) | cancer pain threshold (cancer pain model rats; 10 mg/kg oral) | pain threshold-time area under the curve (AUC) (cancer pain model rats; 10 mg/kg oral) | cancer pain threshold (cancer pain model rats; 30 mg/kg oral) | pain threshold-time area under the curve (AUC) (cancer pain model rats; 30 mg/kg oral) | coordinated motor ability (time to stay on the rotarod) (rats [2]; 10 mg/kg oral, 1, 3, 6 and 24 hours after administration) | coordinated motor ability (time to stay on the rotarod) (rats [2]; 30 mg/kg oral, 1, 3, 6 and 24 hours after administration) |
| --- | --- | --- | --- | --- | --- | --- | --- | --- | --- |
| CC(C)C[C@H](CN)CC(=O)O [pregabalin, Pregabalin] | inhibits coordinated motor ability |  |  |  |  |  |  |  |  |
| NC1CCN(c2cccc(Cl)n2)CC1 [compound A, 1-(6-chloropyridin-2-yl)piperidin-4-amine] |  | no significant changes in the amount of activity | no significant changes in the amount of activity | significantly increased | no statistically significant difference | significantly increased | no statistically significant difference | no significant changes in the coordinated motor ability | no significant changes in the coordinated motor ability |
